This note sets out measurements from patent US20210003556A1, “IMPROVING ANTI-PD-1 CANCER THERAPY” (Mayo Foundation for Medical Education and Research, priority 2018, published 2021).

Series [1] deals with CX3CR1^+ CD8^+ T cells. Type of series: cell-based, human. How it is done: FIG. 7 is a graph plotting CX3CR1^+ CD8^+ and CX3CR1^− CD8^+ T cell survival during treatment with doxorubicin (Dox) in vitro. […] N=4 donors.
(§1) Stimulation and culture of human T cells: Human CD8^+ T cells were purified using a human CD8^+ T cell enrichment kit (Stemcell). CD8^+ T cells were incubated with chemotherapy drugs (paclitaxel, carboplatin, or doxorubicin), either alone or with T cell activators (DYNABEADS®, human T-activator CD3/CD28 beads) for 24-48 hours, followed with staining for CX3CR1 and Granzyme B. ABCB1 inhibitor PGP4008 was purchased from Enzo Life Sciences (Farmingdale, N.Y.).
To determine the effect of chemotherapeutic treatment on survival of CX3CR1^+ and CX3CR1^− CD8^+ T cells, subsets of these cells were isolated, placed in 96 well plates at 2×10^5 cells/well, and incubated with doxorubicin (Dox) at 0.5 μg/ml for 40 hours.

Series [2] has as its system CX3CR1^+ CD8^+ T cells. Kind of series: CTL function (CD107a expression, IFN-γ production) of CD8+ T cells with ABCB1 inhibitor with or without CP. The class given is cell-based, human. The settings on record: anti-CD3/CD28 beads 24 hours. As for the experimental part: as §1
Since the pharmacodynamics of doxorubicin may not be able to exactly reflect the efflux of carboplatin and paclitaxel (CP), and these drugs cannot be directly tracked due to lack of fluorescent capability, the impact of the drug transporter inhibitor on the function of T cells in the presence of CP was examined to determine whether T cell function might be dampened due to the reduced ability of T cells to efflux CP. ABCB1 transporter inhibitor (PGP4008) was incubated with resting or activated human primary CD8^+ T cells in vitro in the presence of CP. T cell function was measured by based pm degranulation (CD107a expression) and intracellular IFN-γ production.

For series [3], the system named is CX3CR1^+ CD8^+ T cells. Briefly: IL-15 treatment of human PBMC in vitro (proliferation/expansion of CX3CR1+ CD8+ T cells). The class given is cell-based. How it is done:
FIG. 8A is a flow cytometry plot showing representative CD122 expression by CX3CR1^+ CD8^+ T cells. FIG. 8B is a graph plotting CD122 expression by CX3CR1^+ and CX3CR1^− CD8^+ T cells in PBMC after incubation with PHA-L for 48 hours. […] FIG. 8C is a graph plotting proliferation of CX3CR1^+ CD8^+ T cells treated in vitro with human IL-15 for 48 hours.
FIG. 9 is a graph plotting % CX3CR1^+ Granzyme CD8^+ T cells among human peripheral blood mononuclear cells (PBMC) cultured with graded concentrations of rh-IL-15 for 24 hours in vitro.
For at least a couple of reasons, IL-15 may improve anti-PD-1 therapy for non-responsive tumors. First, the transcription of CD122 (IL-2 receptor beta) was increased in CD11a^high CD8^+ T cells in responders 25 compared to non-responders (FIG. 1B). […] Further, human PBMC were incubated with human IL-15 (10 ng/ml) or anti-CD3/CD28 beads for 48 hours, and proliferation of CX3CR1^+ CD8^+ T cells was assessed based on % Ki67^+ cells.
To test whether IL-15 directly contributes to the expansion of CX3CR1^+ Granzyme B^+ CD8^+ T cells, human recombinant IL-15 was incubated for 24 hours with PBMC isolated from healthy human donors, followed by flow cytometry analysis of CX3CR1^+ Granzyme B^+ CD8^+ T cells. […] Thus, IL-15 may improve the efficacy of PD-1 ICI therapy by expanding CX3CR1^+ Granzyme B^+ CD8^+ T cells that are capable of rejecting tumors.

Series [4] concerns metastatic melanoma. Kind of series: Salvage chemotherapy added to anti-PD-1 in metastatic melanoma patients who failed PD-1 blockade. Type of series: in vivo, human. The settings on record: BRAF wild-type metastatic melanoma; pembrolizumab alone, then carboplatin and paclitaxel added, assessed three weeks after the combination. As for the experimental part: FIGS. 2A to 2C show patient responses to CIT with an increase of CX3CR1^+ Granzyme B^+ CD8^+ T cells. […] Given the disease progression while on pembrolizumab, paclitaxel, and carboplatin (white arrows) were initiated at 175 mg/m^2 and an AUC (area under curve) of 5 every 3 weeks for 2 cycles in combination with pembrolizumab. The patient received total of 12 cycles of pembrolizumab at the end of the follow up. FIG. 2B is a pair of flow cytometry plots showing CX3CR1 levels pre- and post-chemo, as indicated. Following the same schedule of treatment as in FIG. 2A, blood samples were collected for flow analysis of CX3CR1^+ Granzyme B^+ among CD11a^highCD8^+ T cells. […]
Patient information: The studies described herein were conducted according to Declaration of Helsinki principles. […] Response to treatment was evaluated according to standard clinical practice guidelines using Response Evaluation Criteria In Solid Tumors (RECIST) criteria. […]
The frequency of CX3CR1^+ Granzyme B^+ CD8^+ tumor-reactive T cells was examined before and after chemotherapy combined with anti-PD-1 therapy in patients with metastatic melanoma. […] The frequency of CX3CR1^+ Granzyme B^+ cells also was measured and compared in other responders and non-responders prior to and after chemotherapy. […]

For series [5], the system named is Bim^+ CD8^+ T cells. Kind of series: % Bim+ CD8+ T cells in peripheral blood of metastatic melanoma patients after PD-1 ICI therapy. Type of series: in vivo, human. The settings on record: 12 weeks after anti-PD-1 therapy; responders vs non-responders, first cohort. The text has this: FIGS. 15A to 15D illustrate changes in Bim^+ CD8^+ T cells in response to PD-1 ICI therapy in patients with MM. FIG. 15A is a graph plotting percentages of changes in the frequency (%) of Bim^+ CD8^+ T cells in MM patients with progressive diseases (P, n=7) and responders (R, n=6) at 12-weeks after PD-1 therapy. **P<0.01, error bars, median with interquartile ranges. FIG. 15B is a series of images of metastatic melanoma (white arrows) in one patient with pseudo-progression at 12 weeks after PD-1 therapy. FIG. 15C is a graph plotting % Bim^+ CD8^+ T cells of the patient of FIG. 15B at baseline, 12 weeks, and 16 weeks after PD-1 therapy. FIG. 15D is a graph plotting the % change of Bim^+ CD8^+ T cells in a second cohort of melanoma patients (total 38) at 12 weeks after PD-1 therapy.
Further studies were conducted to examine and compare the frequency of Bim^+ cells among circulating CD11a^high CD8^+ T cells, since this population of T cells is enriched with tumor-reactive T cells (Liu et al., Oncoimmunology, 2013, 2:e23972). […] In addition, Bim levels (MFI) were positively correlated with PD-1 levels among CD11a^high CD8^+ T cells of cancer patients (FIG. 14B, P<0.01; Duraiswamy et al., J Immunol, 2011, 186:4200-4212). […] Therefore, measurement of the frequency of Bim^+ CD8^+ T cells can be used to the degree to which PD-1 signals have been blocked in cancer patients. […]

In the case of `O=C(Cc1ccccc1)Nc1c2c(nc3ccccc13)N(Cc1ccccc1)CC2` [PGP4008], the “apoptosis of CX3CR1+ CD8+ T cells after addition of ABCB1 inhibitor” value in series [1] (cultured with Doxorubicin 0.5 μg/ml for 40 hours plus PGP4008) is “increased apoptosis”. Further, the “function of CX3CR1+ CD8+ T cells (CD107a expression, IFN-γ production)” value in series [2] (in the absence of CP) is on record as “not in the absence of CP”; in series [2] (in the presence of CP (carboplatin and paclitaxel)), “significantly inhibited the function”.

For the compound `COc1cccc2c1C(=O)c1c(O)c3c(c(O)c1C2=O)C[C@@](O)(C(=O)CO)C[C@@H]3O[C@H]1C[C@H](N)[C@H](O)[C@H](C)O1` [doxorubicin], in series [1] (human, 40 h, 0.5 μg/ml), the “apoptosis (Annexin V) of CD8+ T cells” value was “fewer CX3CR1^+ CD8^+ T cells (efflux cells) than CX3CR1^− CD8^+ T cells (non-efflux cells) underwent apoptosis” and the “percentage of Dox+/annexin V low (live) cells” value is given as “higher in the CX3CR1^+ subset of CD8^+ T cells than in the CX3CR1^− CD8^+ subset”.

Take “human IL-15: human recombinant interleukin-15”: the “expansion of CX3CR1+ Granzyme B+ CD8+ T cells among PBMC” value in series [3] (graded concentrations of rh-IL-15, 24 hours, healthy human donors) is “significantly increased the expansion”. Besides, in series [3] (human PBMC, human IL-15 10 ng/ml, 48 hours), the “proliferation of CX3CR1+ CD8+ T cells (% Ki67+ cells)” value is given as “increased proliferation”.

Turning to pembrolizumab: anti-PD-1 antibody, in series [4], the “disease status (PET/CT) in one patient” value was “rapid progression of metastatic melanoma in the peritoneum and liver”. The “% Bim+ CD8+ T cells” value in series [5] is “significantly decreased in responders compared to non-responders”.
